In ChEMBL document CHEMBL5634127, “Synthesis of novel rhodamine type Anthrone Spiro-lactam (ASL) analogues and evaluation of antiviral activity against dengue and chikungunya viruses” (Eur J Med Chem, 2023):
Calls of active or inactive are those of the source. The rule behind the calls is not given here.

Columns and labels:
[1] = system: Dengue virus; experiment: Antiviral activity against Dengue virus infected in green monkey Vero cells assessed as reduction in viral titer at 50 uM incubated for 1 hr after the virus infection and measured after 120 hrs by focus forming unit assay (reference value: 6.134 log10FFU/ml); type: functional; conditions: time 121 hrs
[2] = system: Dengue virus; experiment: Antiviral activity against Dengue virus infected in green monkey Vero cells assessed as reduction in colony forming unit incubated for 1 hr after the virus infection and measured after 120 hrs by focus forming unit assay; type: functional, organism-based; conditions: time 121.0 hrs
[3] = system: Chikungunya virus; experiment: Antiviral activity against Chikungunya virus infected in green monkey Vero cells assessed as reduction in viral growth at 50 uM incubated for 1 hr along with virus infection and measured after 24 hrs by focus forming unit assay; type: functional, organism-based; conditions: time 25.0 hrs
[4] = Cytotoxicity against green monkey Vero cells incubated for 5 days by MTT assay; type: toxicity, cell-based; conditions: chlorocebus sabaeus, time 5 day
[5] = system: Chikungunya virus; experiment: Antiviral activity against Chikungunya virus infected in green monkey Vero cells assessed as reduction in viral growth at 50 uM preincubated for 1 hr with compound followed by virus infection and measured after 24 hrs by focus forming unit assay; type: functional, organism-based; conditions: time 25.0 hrs
[6] = system: Dengue virus; experiment: Antiviral activity against Dengue virus infected in green monkey Vero cells assessed as reduction in viral titer at 25 uM incubated for 1 hr after the virus infection and measured after 120 hrs by focus forming unit assay (reference value: 6.134 log10FFU/ml); type: functional; conditions: time 121 hrs
[7] = system: Dengue virus; experiment: Antiviral activity against Dengue virus infected in green monkey Vero cells assessed as reduction in colony forming unit at 50 uM incubated for 1 hr after the virus infection and measured after 120 hrs by focus forming unit assay; type: functional; conditions: time 121 hrs
[8] = system: Chikungunya virus; experiment: Antiviral activity against Chikungunya virus infected in green monkey Vero cells assessed as reduction in viral growth incubated for 1 hr after the virus infection and measured after 24 hrs by focus forming unit assay; type: functional, organism-based; conditions: time 25.0 hrs
[9] = Cytotoxicity against green monkey Vero cells assessed as cell viability at 0.78 to 100 uM incubated for 5 days by MTT assay relative to control; type: toxicity, cell-based; conditions: chlorocebus sabaeus, dose 0.78-100 µM, time 5 day, read-out: Activity
[10] = system: Chikungunya virus; experiment: Antiviral activity against Chikungunya virus infected in green monkey Vero cells assessed as reduction in colony forming unit at 50 uM incubated for 1 hr after the virus infection and measured after 24 hrs by focus forming unit assay; type: functional; conditions: time 25 hrs
[11] = system: Dengue virus; experiment: Antiviral activity against Dengue virus infected in green monkey Vero cells assessed as reduction in viral titer at 100 uM incubated for 1 hr after the virus infection and measured after 120 hrs by focus forming unit assay (reference value: 6.134 log10FFU/ml); type: functional; conditions: time 121 hrs
[12] = system: Dengue virus; experiment: Antiviral activity against Dengue virus infected in green monkey Vero cells assessed as reduction in colony forming unit at 100 uM incubated for 1 hr after the virus infection and measured after 120 hrs by focus forming unit assay; type: functional; conditions: time 121 hrs
[13] = system: Chikungunya virus; experiment: Antiviral activity against Chikungunya virus infected in green monkey Vero cells assessed as reduction in viral growth at 100 uM preincubated for 1 hr with compound followed by virus infection and measured after 24 hrs by focus forming unit assay; type: functional, organism-based; conditions: time 25.0 hrs
[14] = system: Chikungunya virus; experiment: Antiviral activity against Chikungunya virus infected in green monkey Vero cells assessed as reduction in viral growth at 100 uM incubated for 1 hr along with virus infection and measured after 24 hrs by focus forming unit assay; type: functional, organism-based; conditions: time 25.0 hrs
[15] = system: Chikungunya virus; experiment: Antiviral activity against Chikungunya virus infected in green monkey Vero cells assessed as reduction in viral growth at 3.125 uM incubated for 1 hr along with virus infection and measured after 24 hrs by focus forming unit assay; type: functional, organism-based; conditions: time 25.0 hrs
[16] = system: Chikungunya virus; experiment: Antiviral activity against Chikungunya virus infected in green monkey Vero cells assessed as reduction in viral growth at 3.125 uM preincubated for 1 hr with compound followed by virus infection and measured after 24 hrs by focus forming unit assay; type: functional, organism-based; conditions: time 25.0 hrs
[17] = system: Dengue virus; experiment: Antiviral activity against Dengue virus infected in green monkey Vero cells assessed as reduction in colony forming unit incubated for 1 hr along with virus infection and measured after 120 hrs by focus forming unit assay; type: functional, organism-based; conditions: time 121.0 hrs
[18] = system: Chikungunya virus; experiment: Antiviral activity against Chikungunya virus infected in green monkey Vero cells assessed as reduction in viral growth at 12.5 uM incubated for 1 hr along with virus infection and measured after 24 hrs by focus forming unit assay; type: functional, organism-based; conditions: time 25.0 hrs
[19] = system: Chikungunya virus; experiment: Antiviral activity against Chikungunya virus infected in green monkey Vero cells assessed as reduction in viral growth at 12.5 uM preincubated for 1 hr with compound followed by virus infection and measured after 24 hrs by focus forming unit assay; type: functional, organism-based; conditions: time 25.0 hrs
[20] = system: Dengue virus; experiment: Antiviral activity against Dengue virus infected in green monkey Vero cells assessed as reduction in colony forming unit at 12.5 uM incubated for 1 hr along with virus infection and measured after 120 hrs by focus forming unit assay (reference value: 5.187 log10FFU/ml); type: functional; conditions: time 121 hrs
[21] = system: Chikungunya virus; experiment: Antiviral activity against Chikungunya virus infected in green monkey Vero cells assessed as reduction in viral growth at 6.25 uM incubated for 1 hr along with virus infection and measured after 24 hrs by focus forming unit assay; type: functional, organism-based; conditions: time 25.0 hrs
[22] = system: Chikungunya virus; experiment: Antiviral activity against Chikungunya virus infected in green monkey Vero cells assessed as reduction in viral growth at 6.25 uM preincubated for 1 hr with compound followed by virus infection and measured after 24 hrs by focus forming unit assay; type: functional, organism-based; conditions: time 25.0 hrs

SMILES | Remaining viral titer [1] [log10FFU/ml] | Activity [2] | Activity [3] | CC50 at 120 h [4] [µM] | Activity [5] | viability at 120 h, up to 100 µM [9] [%] | other results
COc1cc2c(cc1OC)C1(c3cc(OC)c(OC)cc3C2=O)c2cc(OC)c(OC)cc2C(=O)N1/N=C/c1cc(OC)c(OC)c(OC)c1 | 4.098 | Dose-Dependent Effect | inactive | 99.8 | inactive | ≥ 90 | Activity [6]: 5.064 log10FFU/ml; Activity [7]: >=1 log10CFU; Activity [8]: Dose-Dependent Effect; Activity [10]: >=1 log10CFU
COc1cc2c(cc1OC)C1(c3cc(OC)c(OC)cc3C2=O)c2cc(OC)c(OC)cc2C(=O)N1NC(=O)c1ccc([N+](=O)[O-])cc1 | – | – | inactive | 97.3 | inactive | ≥ 90 | –
COc1cc2c(cc1OC)C1(c3cc(OC)c(OC)cc3C2=O)c2cc(OC)c(OC)cc2C(=O)N1NC(=O)c1cc(C(F)(F)F)cc(C(F)(F)F)c1 | – | – | inactive | 98.9 | inactive | ≥ 90 | Activity [8]: Dose-Dependent Effect; Activity [10]: >=1 log10CFU
COc1cc2c(cc1OC)C1(c3cc(OC)c(OC)cc3C2=O)c2cc(OC)c(OC)cc2C(=O)N1/N=C/c1cc(OC)c(O)c(OC)c1 | 5.052 | Dose-Dependent Effect | – | > 100 | – | ≥ 90 | Activity [11]: 3.994 log10FFU/ml; Activity [12]: >=1 log10CFU; Activity [13]: inactive; Activity [14]: inactive
COc1cc2c(cc1OC)C1(c3cc(OC)c(OC)cc3C2=O)c2cc(OC)c(OC)cc2C(=O)N1/N=C/c1ccccc1 | – | Dose-Dependent Effect | – | > 100 | – | ≥ 90 | Activity [11]: 5.03 log10FFU/ml; Activity [12]: >=1 log10CFU; Activity [13]: inactive; Activity [14]: inactive
COc1cc(/C=N/N2C(=O)c3cc(OC)c(OC)cc3C23c2cc(OC)c(OC)cc2C(=O)c2cc(OC)c(OC)cc23)ccc1O | 5.23 | Dose-Dependent Effect | inactive | 113 | inactive | ≥ 90 | Activity [7]: >=1 log10CFU
COc1cc2c(cc1OC)C1(c3cc(OC)c(OC)cc3C2=O)c2cc(OC)c(OC)cc2C(=O)N1/N=C/c1cccs1 | – | – | – | 52.7 | – | ≥ 90 | Activity [15]: inactive; Activity [16]: inactive
COc1cc2c(cc1OC)C1(c3cc(OC)c(OC)cc3C2=O)c2cc(OC)c(OC)cc2C(=O)N1/N=C/c1ccccc1O | – | – | – | 173 | – | ≥ 90 | Activity [17]: Dose-Dependent Effect; Activity [18]: inactive; Activity [19]: inactive; Activity [20]: 4.101 log10FFU/ml
COc1cc2c(cc1OC)C1(c3cc(OC)c(OC)cc3C2=O)c2cc(OC)c(OC)cc2C(=O)N1/N=C/c1ccc(N(C)C)cc1 | – | – | inactive | 122 | inactive | ≥ 90 | –
COc1cc2c(cc1OC)C1(c3cc(OC)c(OC)cc3C2=O)c2cc(OC)c(OC)cc2C(=O)N1/N=C/c1ccc(Br)cc1 | 5.431 | Dose-Dependent Effect | inactive | 181 | inactive | ≥ 90 | Activity [7]: >=1 log10CFU
COc1cc2c(cc1OC)C1(c3cc(OC)c(OC)cc3C2=O)c2cc(OC)c(OC)cc2C(=O)N1/N=C/c1ccc2ccccc2n1 | – | – | – | 100 | – | ≥ 90 | Activity [21]: inactive; Activity [22]: inactive
COc1cc2c(cc1OC)C1(c3cc(OC)c(OC)cc3C2=O)c2cc(OC)c(OC)cc2C(=O)N1/N=C/c1c2ccccc2cc2ccccc12 | – | – | inactive | 352 | inactive | ≥ 90 | –
